#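 Growth conditions: 96-well plates. Treatment: test compound, 48 hours, 5 concentrations. Analysis: linear interpolation between bracketing concentrations; unreached endpoints set to highest concentration. The concentration for 50% growth inhibition is given as GI50. TGI marks complete inhibition of growth.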
# Columns and labels:
# Experiment in all cases: NCI anticancer screen, dose series, 48 h
# [1] = tested on: LOX IMVI melanoma
# [2] = tested on: NCI-H23 lung
# [3] = tested on: TK-10 renal
# [4] = tested on: NCI-H522 lung
# [5] = tested on: PC-3 prostate
# [6] = tested on: NCI-H226 lung
# [7] = tested on: HOP-92 NSCLC
# [8] = tested on: KM12 colon
# [9] = tested on: MALME-3M melanoma
# [10] = tested on: HCT-15 colon
SMILES,TGI [1],TGI [2],TGI [3],TGI [4],TGI [5],TGI [6],TGI [7],TGI [8],TGI [9],TGI [10],GI50 [1],GI50 [2],GI50 [3],GI50 [4],GI50 [5],GI50 [6],GI50 [7],GI50 [8],GI50 [9],GI50 [10]
O=c1[nH]nc(Cc2c[nH]c3ccccc23)o1,> 100 µM,> 100 µM,> 100 µM,> 100 µM,> 100 µM,> 100 µM,> 100 µM,> 100 µM,> 100 µM,> 100 µM,,,,,,,,,,
COc1ccc(Cc2nnc(Nc3ccc(Br)cc3)[nH]c2=O)cc1OC,> 100 µM,> 100 µM,> 100 µM,> 100 µM,> 100 µM,> 100 µM,> 100 µM,> 100 µM,> 100 µM,> 100 µM,,,,,,,,,,
COc1cc(/C=N/n2c(-c3ccccc3)nn(C(C)=O)c2=O)cc(OC)c1OC,> 100 µM,> 49.4 µM,31.8 µM,8.56 µM,> 81.8 µM,> 100 µM,> 89.7 µM,> 59.5 µM,> 46.6 µM,> 100 µM,,,,,,,,,,
CN(C)CCn1c(=O)c2ccc(NCCN3CCNCC3)c3c(=O)c4ccccc4n(c1=O)c23,11.9 µM,16.8 µM,27.5 µM,10 µM,16.2 µM,15.2 µM,9.59 µM,16.4 µM,17 µM,25.3 µM,,,,,,,,,,
COc1cc(C2c3cc4c(cc3OC(NNS(=O)(=O)c3ccc(C)cc3)C2C)OCO4)cc(OC)c1O (stereo unspecified),52.3 µM,76.4 µM,39.9 µM,69.1 µM,14 µM,60.2 µM,54.8 µM,36.5 µM,25 µM,22.6 µM,,,,,,,,,,
O=C1CSC(c2ccccc2[N+](=O)[O-])N1c1ccc(-c2ccc(-n3c(-c4ccccc4)nc4ccccc4c3=O)cc2)cc1 (stereo unspecified),> 100 µM,,> 100 µM,> 100 µM,> 100 µM,> 100 µM,> 100 µM,> 100 µM,> 100 µM,> 100 µM,,,,,,,,,,
COc1cc(NCCC2CCCCN2)c2ncccc2c1 (stereo unspecified),> 100 µM,> 100 µM,> 100 µM,> 100 µM,> 100 µM,97.9 µM,> 100 µM,> 100 µM,> 57.6 µM,> 100 µM,,,,,,,,,,
NC(=O)Cc1nc2c(N)ncnc2n1C1OC(CO)C(O)C1O (stereo unspecified),> 100 µM,> 100 µM,> 100 µM,> 100 µM,> 100 µM,> 100 µM,> 100 µM,> 100 µM,> 100 µM,> 100 µM,,,,,,,,,,
O=C(c1ccccc1)c1ccc2[nH]c(-c3c(Cl)c(Cl)c(Cl)c(Cl)c3C(=O)N/N=C/c3cccc(Oc4ccccc4)c3)nc2c1,> 100 µM,> 100 µM,> 100 µM,> 100 µM,> 100 µM,> 100 µM,> 100 µM,> 100 µM,> 100 µM,> 100 µM,,,,,,,,,,
CCOC(=O)C(Cc1ccc(OC(=O)c2ccc(OC)cc2)cc1)NC(=O)C(F)(F)F (stereo unspecified),> 100 µM,> 100 µM,> 100 µM,> 100 µM,> 100 µM,> 100 µM,> 100 µM,> 100 µM,> 100 µM,> 100 µM,,,,,,,,,,
CC(=O)OCC1OC(Nn2c(=O)[nH]c3ccccc3c2=O)C(OC(C)=O)C(OC(C)=O)C1OC(C)=O (stereo unspecified),> 100 µM,> 100 µM,,> 100 µM,> 100 µM,> 100 µM,> 100 µM,> 100 µM,> 100 µM,> 100 µM,,,,,,,,,,
NC(Cc1ccc(N(CCCl)CCCl)cc1)C(=O)NC(CCC(=O)O)C(=O)O (stereo unspecified),> 100 µM,> 100 µM,> 100 µM,> 100 µM,> 100 µM,> 100 µM,> 100 µM,> 100 µM,> 100 µM,> 100 µM,,,,,,,,,,
O=C(Nc1ccc(-n2ccc3c(NC(=O)c4ccccc4)ncnc32)cc1)Nc1ccc(Cl)c(Cl)c1,16.3 µM,22.3 µM,3.46 µM,7.34 µM,2.86 µM,29.2 µM,6.94 µM,6.67 µM,12 µM,6.97 µM,2.38 µM,6.33 µM,1.44 µM,1.28 µM,1.06 µM,11.7 µM,1.12 µM,1.8 µM,3.39 µM,1.74 µM
CCC(=O)Nc1ccc(NC(C#N)c2cccc(Oc3ccccc3)c2)cc1 (stereo unspecified),47 µM,> 100 µM,,> 100 µM,> 100 µM,89.3 µM,> 100 µM,> 100 µM,94.2 µM,> 100 µM,,,,,,,,,,
N#Cc1c(N2CCC(O)C2)c2ccccc2n2c1nc1ccccc12 (stereo unspecified),> 100 µM,> 100 µM,> 100 µM,> 100 µM,> 100 µM,,95.7 µM,> 100 µM,> 100 µM,> 100 µM,,,,,,,,,,
C/C=C(\C)C(O)C(C)C(O)C/C=C(C)/C=C(\C)C/C(C)=C/C/C=C(\C)C(O)C(C)c1ccc(CCC)c(=O)o1 (stereo unspecified),28.3 µM,26.1 µM,71.8 µM,17.2 µM,21.3 µM,55.6 µM,44 µM,23.8 µM,27.1 µM,15.3 µM,,,,,,,,,,

SMILES,TGI [1],TGI [2],TGI [3],TGI [4],TGI [5],TGI [6],TGI [7],TGI [8],TGI [9],TGI [10],GI50 [1],GI50 [2],GI50 [3],GI50 [4],GI50 [5],GI50 [6],GI50 [7],GI50 [8],GI50 [9],GI50 [10]
C=C(CCC/C(C)=C/C=C/[C@@H](C)CCCc1ccoc1)C[C@@H]1OC(=O)[C@H](C)[C@@H]1O,21.8 µM,16.6 µM,25.8 µM,15.5 µM,15.6 µM,14.1 µM,19.6 µM,16.1 µM,18.1 µM,21.3 µM,,,,,,,,,,
COC(=O)c1cc(C(=CCC[C@H]2CC[C@@]3(C)C(CCC4C3CC[C@@]3(C)C4CC[C@@H]3C(C)CCCC(C)C)C2)c2cc(Cl)c(O)c(C(=O)OC)c2)cc(Cl)c1O (stereo partly specified),> 10 µM,> 10 µM,> 10 µM,> 10 µM,> 10 µM,> 10 µM,> 10 µM,> 10 µM,> 10 µM,> 10 µM,,,,,,,,,,
CCOC(=O)C1c2[nH]c3ccccc3c2CCN1C(=O)c1ccc(OC)o1 (stereo unspecified),> 10 µM,> 10 µM,> 10 µM,> 10 µM,> 10 µM,> 10 µM,> 10 µM,> 10 µM,2.78 µM,> 10 µM,,,,,,,,,,
CN(C)C(c1ccccc1)C1COC2Cc3ccccc3C1O2 (stereo unspecified),> 100 µM,> 100 µM,> 100 µM,> 100 µM,> 100 µM,> 100 µM,> 100 µM,> 100 µM,> 100 µM,> 100 µM,,,,,,,,,,
COC(=O)C(Cc1c[nH]c2ccccc12)NC(=O)c1ccc(-c2ccc(Cl)cc2Cl)o1 (stereo unspecified),> 100 µM,> 100 µM,> 100 µM,> 100 µM,49.5 µM,> 100 µM,71.4 µM,> 100 µM,> 100 µM,> 100 µM,,,,,,,,,,
COC(=O)C1(C#N)C(C)(C)N=C(c2ccccc2)C12CCCCC2 (stereo unspecified),> 100 µM,> 100 µM,> 100 µM,> 100 µM,> 100 µM,,> 100 µM,> 100 µM,> 100 µM,> 100 µM,,,,,,,,,,
C=CCN(C(=O)OC(C)(C)C)[C@H](C)C(=O)N[C@@H](C)C(=O)OC,> 100 µM,> 100 µM,,> 100 µM,> 100 µM,> 100 µM,> 100 µM,> 100 µM,> 100 µM,> 100 µM,,,,,,,,,,
CC(C)=CCC/C(C)=C/CC/C(C)=C/CC/C(C)=C/CC/C(C)=C/CC/C(C)=C/CC/C(C)=C/CC/C(C)=C/CC/C(C)=C/CO,> 100 µM,> 100 µM,> 100 µM,> 100 µM,> 100 µM,> 100 µM,> 100 µM,> 100 µM,> 100 µM,> 100 µM,,,,,,,,,,
CC1(C)Cc2nc3c(cc2C(=O)C1C=N/C(C#N)=C(\N)C#N)C(=O)C(C=N/C(C#N)=C(\N)C#N)C(C)(C)C3 (stereo unspecified),5.7 µM,7.36 µM,18 µM,2.3 µM,5.35 µM,12.7 µM,3.33 µM,3.38 µM,2.84 µM,4.48 µM,,,,,,,,,,
CC(=O)Nc1c(C)cc2c(nc3n2CCC3OC(C)=O)c1[N+](=O)[O-] (stereo unspecified),> 100 µM,> 100 µM,,> 100 µM,> 100 µM,> 100 µM,> 100 µM,> 100 µM,> 100 µM,> 100 µM,,,,,,,,,,
CC1SCc2nc3ccccc3n21 (stereo unspecified),> 100 µM,> 100 µM,> 100 µM,> 100 µM,> 100 µM,> 100 µM,> 100 µM,> 100 µM,> 100 µM,> 100 µM,,,,,,,,,,
CC[C@@]1(C)CCC2c3ccc(O)cc3CC[C@H]2C1C (stereo partly specified),31.9 µM,36.2 µM,33.3 µM,36.1 µM,34 µM,,19.5 µM,36.7 µM,30.5 µM,31.4 µM,,,,,,,,,,
COC1CN(C)C(=Nc2cccc3ccccc23)S1 (stereo unspecified),> 10 µM,> 10 µM,> 10 µM,> 10 µM,> 10 µM,,> 10 µM,> 10 µM,> 10 µM,> 10 µM,,,,,,,,,,
O=C1C2=C(CC3=C(C2)CS(=O)(=O)C3)C(=O)C2=C1CC1=C(C2)CS(=O)(=O)C1,> 59.9 µM,48.4 µM,> 66.9 µM,22.2 µM,51.6 µM,> 59.7 µM,> 77.7 µM,> 40.8 µM,19.2 µM,> 100 µM,,,,,,,,,,
COc1ccccc1C1ON=C(c2ccc([N+](=O)[O-])cc2)N1C12CC3CC(CC(C3)C1)C2 (stereo unspecified),> 100 µM,> 100 µM,> 100 µM,> 100 µM,> 100 µM,> 100 µM,> 100 µM,> 100 µM,> 100 µM,> 100 µM,,,,,,,,,,

# — PubChem BioAssay (NCI)
